{"source": "patent US20030049320A1", "about": "“Novel in-situ forming controlled release microcarrier delivery system” (priority 2000, published 2003)", "origin": "cited, not measured here", "conditions": "intravenously as a solution, reported in the literature", "data": [{"molecule": "CC(=O)O[C@H]1C(=O)[C@@]2(C)[C@H]([C@H](OC(=O)c3ccccc3)[C@]3(O)C[C@H](OC(=O)[C@H](O)[C@@H](NC(=O)c4ccccc4)c4ccccc4)C(C)=C1C3(C)C)[C@]1(OC(C)=O)CO[C@@H]1C[C@@H]2O", "note": "[paclitaxel]", "values": [{"measurement": "Plasma elimination half-life of paclitaxel", "result": 1.1, "unit": "h"}]}]}
